“And” between values parts separate entries of the source, which are not always exact repeats. Identical values can stand only once. Inconclusive results and toxic doses are left out.
Test system: P388 leukemia ip, CD2F1 mice, survival T/C
Test: NCI In Vivo Anticancer Drug Screen. Data for tumor model P388 Leukemia (intraperitoneal) in CD2F1 (CDF1) mice
Conditions: endpoint: median survival time, higher = longer survival
Outline: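 Mice carrying the transplanted tumor received test compound or vehicle. Survival was recorded in each group, and the value is the treated-group measurement divided by that of the vehicle-treated control group.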

[1] = dose: 12.5 mg/kg/injection, schedule: Q01DX005 (ip), vehicle: saline with Tween-80
[2] = dose: 100.0 mg/kg/injection, schedule: Q01DX001 (ip), vehicle: saline with Tween-80
[3] = dose: 200.0 mg/kg/injection, schedule: Q01DX001 (ip), vehicle: saline with Tween-80
[4] = dose: 100.0 mg/kg/injection, schedule: Q04DX003 (ip), vehicle: saline with Tween-80
[5] = dose: 60.0 mg/kg/injection, schedule: Q01DX005 (ip), vehicle: saline with Tween-80
[6] = dose: 120.0 mg/kg/injection, schedule: Q01DX005 (ip), vehicle: saline with Tween-80
[7] = dose: 240.0 mg/kg/injection, schedule: Q01DX005 (ip), vehicle: saline with Tween-80
[8] = dose: 50.0 mg/kg/injection, schedule: Q01DX005 (ip), vehicle: saline with Tween-80

For `CCn1cc(C(=O)NC(C)C(=O)NC(C)P(=O)(O)O)c(=O)c2ccc(C)nc21` (stereo not given), the T/C (dose: 100.0 mg/kg/injection, schedule: Q04DX002 (ip), vehicle: saline with Tween-80) was 101 % of control, the T/C (dose: 200.0 mg/kg/injection, schedule: Q04DX002 (ip), vehicle: saline with Tween-80) was 102 % of control and the T/C (dose: 400.0 mg/kg/injection, schedule: Q04DX002 (ip), vehicle: saline with Tween-80) was 101 % of control.
`S=C1NCCCN1` was tested, and the T/C (dose: 25.0 mg/kg/injection, schedule: Q04DX003 (ip), vehicle: saline) was 99 % of control, the T/C (dose: 50.0 mg/kg/injection, schedule: Q04DX003 (ip), vehicle: saline) was 104 % of control and the T/C (dose: 100.0 mg/kg/injection, schedule: Q04DX003 (ip), vehicle: saline) was 100 % of control. The T/C (dose: 200.0 mg/kg/injection, schedule: Q04DX003 (ip), vehicle: saline) was 100 % of control.
For `CC1CC(C)(O)CC(C(O)CC2CC(=O)NC(=O)C2)C1=O` (stereo not given), the T/C (dose: 77.8 micrograms/kg/injection, schedule: Q01DX009 (ip), vehicle: saline) was 123 % of control, the T/C (dose: 216.0 micrograms/kg/injection, schedule: Q01DX009 (ip), vehicle: saline) was 152 % of control and 162 % of control and the T/C (dose: 360.0 micrograms/kg/injection, schedule: Q01DX009 (ip), vehicle: saline) was 165 % of control. The T/C (dose: 467.0 micrograms/kg/injection, schedule: Q04DX003 (ip), vehicle: saline) was 120 % of control, the T/C (dose: 778.0 micrograms/kg/injection, schedule: Q04DX003 (ip), vehicle: saline) was 120 % of control and the T/C (dose: 1300.0 micrograms/kg/injection, schedule: Q04DX003 (ip), vehicle: saline) was 120 % of control. For the same compound, the T/C (dose: 2160.0 micrograms/kg/injection, schedule: Q04DX003 (ip), vehicle: saline) was 124 % of control and the T/C (dose: 3600.0 micrograms/kg/injection, schedule: Q04DX003 (ip), vehicle: saline) was 118 % of control.
`O=C1c2cccc3cccc(c23)C(=O)N1c1ncn[nH]1` was tested, and the T/C (dose: 6.25 mg/kg/injection, schedule: Q01DX005 (ip), vehicle: saline with Tween-80) was 87 % of control, the T/C [1] was 86 % of control and the T/C (dose: 200.0 mg/kg/injection, schedule: Q01DX005 (ip), vehicle: saline with Tween-80) was 88 % of control.
For `COc1ccc(N=Nc2c(-c3ccccc3)nn(C(=S)SC)c2-c2ccccc2)cc1`, the T/C [2] was 92 % of control, the T/C [3] was 95 % of control and the T/C (dose: 400.0 mg/kg/injection, schedule: Q01DX001 (ip), vehicle: saline with Tween-80) was 108 % of control.
For `COc1cc(CC2C(Cc3ccc4c(c3)OCO4)COC2CO)cc(OC)c1OC` (stereo not given), the T/C (dose: 6.25 mg/kg/injection, schedule: Q04DX002 (ip), vehicle: acetone) was 95 % of control, the T/C (dose: 12.5 mg/kg/injection, schedule: Q04DX002 (ip), vehicle: acetone) was 102 % of control and the T/C (dose: 25.0 mg/kg/injection, schedule: Q04DX002 (ip), vehicle: acetone) was 98 % of control.
`Cc1c[nH]c2nc(C)n(-c3ccc(F)cc3)c(=N)c12` was tested, and the T/C (dose: 6.25 mg/kg/injection, schedule: Q01DX005 (ip), vehicle: Klucel (hydroxypropylcellulose) (HPC)) was 100 % of control, the T/C (dose: 12.5 mg/kg/injection, schedule: Q01DX005 (ip), vehicle: Klucel (hydroxypropylcellulose) (HPC)) was 102 % of control and the T/C (dose: 25.0 mg/kg/injection, schedule: Q01DX005 (ip), vehicle: Klucel (hydroxypropylcellulose) (HPC)) was 100 % of control.
With `O=C(O)CNCCCCCCNCC(=O)O` the T/C (dose: 50.0 mg/kg/injection, schedule: Q01DX005 (ip), vehicle: saline) was 98 % of control, the T/C (dose: 100.0 mg/kg/injection, schedule: Q01DX005 (ip), vehicle: saline) was 103 % of control and the T/C (dose: 200.0 mg/kg/injection, schedule: Q01DX005 (ip), vehicle: saline) was 106 % of control.
In the case of `COc1ccc(CCN2COc3ccc4ccc(=O)oc4c3C2)cc1OC`, the T/C (dose: 100.0 mg/kg/injection, schedule: Q01DX009 (ip), vehicle: saline with Tween-80) is reported as 100 % of control, the T/C [4] is reported as 110 % of control and the T/C (dose: 200.0 mg/kg/injection, schedule: Q04DX003 (ip), vehicle: saline with Tween-80) is reported as 115 % of control. For the same compound, the T/C (dose: 400.0 mg/kg/injection, schedule: Q01DX009 (ip), vehicle: saline with Tween-80) was 100 % of control and the T/C (dose: 400.0 mg/kg/injection, schedule: Q04DX003 (ip), vehicle: saline with Tween-80) was 110 % of control.
For `CCOC(=O)C(Cl)c1ccc(OC)cc1` (stereo not given), the T/C (dose: 100.0 mg/kg/injection, schedule: Q04DX003 (ip), vehicle: other) was 104 % of control, the T/C (dose: 200.0 mg/kg/injection, schedule: Q04DX003 (ip), vehicle: other) was 90 % of control and the T/C (dose: 400.0 mg/kg/injection, schedule: Q04DX003 (ip), vehicle: other) was 104 % of control.
For `COc1cccc2c1C(=O)c1c(O)c3c(c(O)c1C2=O)CC(O)(C(C)NCCN(C)C)CC3OC1CC(N)C(O)C(C)O1` (stereo not given), the T/C (dose: 0.63 mg/kg/injection, schedule: Q01DX009 (ip), vehicle: water) was 103 % of control, the T/C (dose: 1.25 mg/kg/injection, schedule: Q01DX009 (ip), vehicle: water) was 106 % of control and the T/C (dose: 2.5 mg/kg/injection, schedule: Q01DX009 (ip), vehicle: other) was 121 % of control. The T/C (dose: 20.0 mg/kg/injection, schedule: Q01DX009 (ip), vehicle: other) was 153 % of control and the T/C (dose: 40.0 mg/kg/injection, schedule: Q01DX009 (ip), vehicle: other) was 157 % of control.
With `COc1ccc(/C(=N\O)c2nccc3cc(OC)c(OC)cc23)cc1OC` the T/C (dose: 15.0 mg/kg/injection, schedule: Q01DX005 (ip), vehicle: saline with Tween-80) was 116 % of control, the T/C (dose: 30.0 mg/kg/injection, schedule: Q01DX005 (ip), vehicle: saline with Tween-80) was 105 % of control and the T/C [5] was 99 % of control and 92 % of control.
`C=C/C(C)=C\CC/C(C)=C/c1cc(C(=O)O)co1` was tested, and the T/C (dose: 4.0 mg/kg/injection, schedule: Q01DX009 (ip), vehicle: Klucel (hydroxypropylcellulose) (HPC)) was 104 % of control, the T/C (dose: 8.0 mg/kg/injection, schedule: Q01DX009 (ip), vehicle: Klucel (hydroxypropylcellulose) (HPC)) was 100 % of control and the T/C (dose: 16.0 mg/kg/injection, schedule: Q01DX009 (ip), vehicle: Klucel (hydroxypropylcellulose) (HPC)) was 99 % of control. For the same compound, the T/C (dose: 32.0 mg/kg/injection, schedule: Q01DX009 (ip), vehicle: Klucel (hydroxypropylcellulose) (HPC)) was 100 % of control.
With `Cc1cnnc2c3ccccc3nn12` the T/C (dose: 50.0 mg/kg/injection, schedule: Q01DX005 (ip), vehicle: Klucel (hydroxypropylcellulose) (HPC)) was 99 % of control, the T/C (dose: 100.0 mg/kg/injection, schedule: Q01DX005 (ip), vehicle: Klucel (hydroxypropylcellulose) (HPC)) was 101 % of control and the T/C (dose: 200.0 mg/kg/injection, schedule: Q01DX005 (ip), vehicle: Klucel (hydroxypropylcellulose) (HPC)) was 101 % of control.
In the case of `CCOC(=O)C1Cc2c(OC)cc(OC)cc2OC1=O` (stereo not given), the T/C [5] is reported as 97 % of control, the T/C [6] is reported as 94 % of control and the T/C [7] is reported as 92 % of control.
In the case of `CC(C)(C)n1nc(C2CC2)cc1NC(=O)Nc1ccc(Cl)cc1`, the T/C [5] is reported as 93 % of control, the T/C [6] is reported as 94 % of control and the T/C [7] is reported as 91 % of control.
In the case of `C/C(=N\N=c1\sc2ccccc2n1CC(=O)O)c1ccc([N+](=O)[O-])cc1`, the T/C [2] is reported as 93 % of control and the T/C [3] is reported as 101 % of control.
In the case of `CCCCCCC(C)NN` (stereo not given), the T/C [4] is reported as 86 % of control.
With `COc1ccc(C(=O)N2C(=O)CCC2=O)cc1` the T/C (dose: 50.0 mg/kg/injection, schedule: Q01DX009 (ip), vehicle: Klucel (hydroxypropylcellulose) (HPC)) was 109 % of control, the T/C (dose: 100.0 mg/kg/injection, schedule: Q01DX009 (ip), vehicle: Klucel (hydroxypropylcellulose) (HPC)) was 115 % of control and the T/C (dose: 100.0 mg/kg/injection, schedule: Q04DX003 (ip), vehicle: Klucel (hydroxypropylcellulose) (HPC)) was 113 % of control. For the same compound, the T/C (dose: 200.0 mg/kg/injection, schedule: Q04DX003 (ip), vehicle: Klucel (hydroxypropylcellulose) (HPC)) was 113 % of control and the T/C (dose: 400.0 mg/kg/injection, schedule: Q04DX003 (ip), vehicle: Klucel (hydroxypropylcellulose) (HPC)) was 114 % of control.
In the case of `Cn1c2ccccc2c2cnn3cnnc3c21`, the T/C (dose: 50.0 mg/kg/injection, schedule: Q01DX001 (ip), vehicle: Klucel (hydroxypropylcellulose) (HPC)) is reported as 91 % of control, the T/C (dose: 100.0 mg/kg/injection, schedule: Q01DX001 (ip), vehicle: Klucel (hydroxypropylcellulose) (HPC)) is reported as 88 % of control and the T/C (dose: 200.0 mg/kg/injection, schedule: Q01DX001 (ip), vehicle: Klucel (hydroxypropylcellulose) (HPC)) is reported as 96 % of control.
With `CC(C)(C)C1=CCN(C(C)(C)/C=N\O)CC1` the T/C [1] was 97 % of control, the T/C (dose: 25.0 mg/kg/injection, schedule: Q01DX005 (ip), vehicle: saline with Tween-80) was 100 % of control and the T/C [8] was 100 % of control and 96 % of control.
`O=[N+]([O-])c1cc(I)c(O)c(/C=N/NS(=O)(=O)c2ccc(Cl)cc2)c1` was tested, and the T/C [8] was 101 % of control and the T/C (dose: 100.0 mg/kg/injection, schedule: Q01DX005 (ip), vehicle: saline with Tween-80) was 100 % of control.

From PubChem BioAssay AID330 (DTP/NCI, 2004)
